According to ChEMBL document CHEMBL1201862, “PubChem BioAssay data set” (2004):
Where a name gives a salt, the structure may show the parent alone.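 Each compound was tested at five concentrations against cells in 96-well plates for 48 hours. Abbreviation: GI50, concentration required for 50% inhibition of growth.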 Calls of active or inactive are those of the source. Cut-off read from the data, not from the text of the source: active = GI50 up to about 1.1 µM and inactive = higher.

Tests used:
Assay in all cases: DTP human tumour cell line panel, 48 h
786-0 = system: 786-0
A498 = system: A498
A549 = system: A549
COLO 205 = system: COLO 205
HCT-116 = system: HCT-116
HOP-62 = system: HOP-62
Hs-578T = system: Hs-578T
K562 = system: K562
MDA-MB-435 = system: MDA-MB-435
MOLT-4 = system: MOLT-4
NCI-H23 = system: NCI-H23
OVCAR-8 = system: OVCAR-8
PC-3 = system: PC-3
SF-539 = system: SF-539
SK-MEL-2 = system: SK-MEL-2
SNB-19 = system: SNB-19
U-251 = system: U-251
HL-60 = system: HL-60
LOX IMVI = system: LOX IMVI
Malme-3M = system: Malme-3M

SMILES	GI50 (786-0)	GI50 (A498)	GI50 (A549)	GI50 (COLO 205)	GI50 (HCT-116)	GI50 (HOP-62)	GI50 (Hs-578T)	GI50 (K562)	GI50 (MDA-MB-435)	GI50 (MOLT-4)	GI50 (NCI-H23)	GI50 (OVCAR-8)	GI50 (PC-3)	GI50 (SF-539)	GI50 (SK-MEL-2)	GI50 (SNB-19)	GI50 (U-251)	GI50 (HL-60)	GI50 (LOX IMVI)	GI50 (Malme-3M)
C=CCOC(=O)CC[N+]1=CCC(c2ccccc2)(c2ccccc2)O1	> 100 µM (inactive)	> 100 µM (inactive)	> 100 µM (inactive)	> 100 µM (inactive)	> 100 µM (inactive)	> 100 µM (inactive)	> 100 µM (inactive)	> 100 µM (inactive)	> 100 µM (inactive)	> 100 µM (inactive)	> 100 µM (inactive)	> 100 µM (inactive)	> 100 µM (inactive)	> 100 µM (inactive)	> 100 µM (inactive)	> 100 µM (inactive)	> 100 µM (inactive)	–	–	–
CC1=NN(C(=O)CC(=O)NC(=O)/C=C\c2ccccc2)C(=O)C1/N=N/c1ccc([N+](=O)[O-])cc1 (stereo unspecified)	83.8 µM (inactive)	20.5 µM (inactive)	84.5 µM (inactive)	> 100 µM (inactive)	35.6 µM (inactive)	> 100 µM (inactive)	44 µM (inactive)	53.2 µM (inactive)	> 100 µM (inactive)	60.1 µM (inactive)	40.2 µM (inactive)	> 100 µM (inactive)	> 100 µM (inactive)	> 100 µM (inactive)	–	> 100 µM (inactive)	35.3 µM (inactive)	> 100 µM (inactive)	> 100 µM (inactive)	> 100 µM (inactive)
CO[C@H]1C[C@H](n2cc(C)c(=O)[nH]c2=O)O[C@@H]1CO	> 100 µM (inactive)	> 100 µM (inactive)	> 100 µM (inactive)	> 100 µM (inactive)	> 100 µM (inactive)	> 100 µM (inactive)	> 100 µM (inactive)	> 100 µM (inactive)	> 100 µM (inactive)	> 100 µM (inactive)	> 100 µM (inactive)	> 100 µM (inactive)	> 100 µM (inactive)	> 100 µM (inactive)	–	> 100 µM (inactive)	> 100 µM (inactive)	> 100 µM (inactive)	> 100 µM (inactive)	> 100 µM (inactive)
CCNC(=O)Nc1cccc(C)n1	> 100 µM (inactive)	> 100 µM (inactive)	> 100 µM (inactive)	> 100 µM (inactive)	> 100 µM (inactive)	91.4 µM (inactive)	> 100 µM (inactive)	> 100 µM (inactive)	> 100 µM (inactive)	> 100 µM (inactive)	> 100 µM (inactive)	> 100 µM (inactive)	> 100 µM (inactive)	> 100 µM (inactive)	–	> 100 µM (inactive)	> 100 µM (inactive)	67.8 µM (inactive)	–	> 100 µM (inactive)
Cc1n[nH]c(=O)n1/N=C/c1cccs1	> 100 µM (inactive)	> 100 µM (inactive)	> 100 µM (inactive)	> 100 µM (inactive)	> 100 µM (inactive)	> 100 µM (inactive)	36.5 µM (inactive)	> 100 µM (inactive)	> 100 µM (inactive)	–	> 100 µM (inactive)	> 100 µM (inactive)	> 100 µM (inactive)	> 100 µM (inactive)	> 100 µM (inactive)	> 100 µM (inactive)	> 100 µM (inactive)	–	> 100 µM (inactive)	> 100 µM (inactive)
O=C1c2ccccc2C(=O)N1CCCCNOCCCN1C(=O)c2ccccc2C1=O	> 100 µM (inactive)	> 100 µM (inactive)	> 100 µM (inactive)	> 100 µM (inactive)	> 100 µM (inactive)	> 100 µM (inactive)	> 100 µM (inactive)	> 100 µM (inactive)	> 100 µM (inactive)	> 100 µM (inactive)	> 100 µM (inactive)	> 100 µM (inactive)	> 100 µM (inactive)	–	–	> 100 µM (inactive)	> 100 µM (inactive)	–	> 100 µM (inactive)	> 100 µM (inactive)
CC1=NN(c2cccc(Cl)c2)C2(C1=Cc1ccccc1)C(Cl)C(=O)N2c1nc2ccccc2s1 (stereo unspecified)	17.5 µM (inactive)	18.2 µM (inactive)	–	–	16.7 µM (inactive)	20.3 µM (inactive)	23.2 µM (inactive)	19.1 µM (inactive)	19.3 µM (inactive)	23.5 µM (inactive)	14.5 µM (inactive)	32.1 µM (inactive)	16.8 µM (inactive)	33.2 µM (inactive)	17 µM (inactive)	–	14.1 µM (inactive)	22.1 µM (inactive)	23.7 µM (inactive)	–
COc1ccc2cc(-c3nc(N)nc(N4N=C(C)CC4(C)C)n3)c(=N)oc2c1	17.9 µM (inactive)	32.3 µM (inactive)	24.9 µM (inactive)	16.6 µM (inactive)	19.1 µM (inactive)	22.2 µM (inactive)	23.2 µM (inactive)	16.4 µM (inactive)	18.5 µM (inactive)	11.7 µM (inactive)	16.5 µM (inactive)	23 µM (inactive)	16.8 µM (inactive)	16 µM (inactive)	17.5 µM (inactive)	19.3 µM (inactive)	18.8 µM (inactive)	19.9 µM (inactive)	–	16.5 µM (inactive)
COc1nc(C)nc2sc3c(c12)CCCC3	> 100 µM (inactive)	> 100 µM (inactive)	–	> 100 µM (inactive)	> 100 µM (inactive)	> 100 µM (inactive)	> 100 µM (inactive)	> 100 µM (inactive)	> 100 µM (inactive)	> 100 µM (inactive)	> 100 µM (inactive)	> 100 µM (inactive)	> 100 µM (inactive)	–	> 100 µM (inactive)	> 100 µM (inactive)	> 100 µM (inactive)	> 100 µM (inactive)	> 100 µM (inactive)	> 100 µM (inactive)
CC(C)(C)C(=O)OC(N)/C=C/c1ccccc1 (stereo unspecified)	> 100 µM (inactive)	> 100 µM (inactive)	> 100 µM (inactive)	> 100 µM (inactive)	> 100 µM (inactive)	> 100 µM (inactive)	> 100 µM (inactive)	–	> 100 µM (inactive)	> 100 µM (inactive)	> 100 µM (inactive)	> 100 µM (inactive)	> 100 µM (inactive)	> 100 µM (inactive)	> 100 µM (inactive)	–	> 100 µM (inactive)	76.2 µM (inactive)	–	> 100 µM (inactive)
C=C1C[C@@H]2CC[C@@]34C[C@H]5O[C@H]6[C@@H](O3)[C@H]3O[C@H](CC[C@@H]3O[C@H]6[C@H]5O4)CC(=O)C[C@@H]3[C@@H](OC)[C@@H](C[C@H](O)CN)O[C@H]3C[C@H]3O[C@@H](CC[C@@H]1O2)C[C@@H](C)C3=C [ERIBULIN MESYLATE]	0.00328 µM (active)	0.00434 µM (active)	0.00197 µM (active)	0.00031 µM (active)	0.00074 µM (active)	0.00412 µM (active)	0.0022 µM (active)	0.000916 µM (active)	5.96e-05 µM (active)	0.000791 µM (active)	0.00109 µM (active)	0.00598 µM (active)	0.00037 µM (active)	0.000465 µM (active)	0.00607 µM (active)	–	0.00134 µM (active)	–	0.0014 µM (active)	0.00366 µM (active)
CCOC(=O)C1=C(C)OC(=O)[C@@]2(OC)C=C(Cl)[C@@]12C	> 100 µM (inactive)	> 100 µM (inactive)	> 100 µM (inactive)	> 100 µM (inactive)	> 100 µM (inactive)	> 100 µM (inactive)	> 100 µM (inactive)	> 100 µM (inactive)	> 100 µM (inactive)	> 100 µM (inactive)	> 100 µM (inactive)	> 100 µM (inactive)	> 100 µM (inactive)	> 100 µM (inactive)	–	> 100 µM (inactive)	> 100 µM (inactive)	33 µM (inactive)	> 100 µM (inactive)	> 100 µM (inactive)
CCc1nc(N)nc(N)c1-c1ccc(N2CCNCC2)cc1	60.5 µM (inactive)	> 97.1 µM (inactive)	54.3 µM (inactive)	18.9 µM (inactive)	35.2 µM (inactive)	55.8 µM (inactive)	> 100 µM (inactive)	24.2 µM (inactive)	59.8 µM (inactive)	41 µM (inactive)	46 µM (inactive)	66.5 µM (inactive)	49.3 µM (inactive)	77.3 µM (inactive)	> 100 µM (inactive)	47.6 µM (inactive)	88.7 µM (inactive)	34.4 µM (inactive)	39.7 µM (inactive)	–
[O-][n+]1c2cccc(O)c2[n+]([O-])c2cccc(O)c21	30.2 µM (inactive)	> 100 µM (inactive)	84.7 µM (inactive)	52.8 µM (inactive)	21.4 µM (inactive)	27.9 µM (inactive)	> 100 µM (inactive)	39.2 µM (inactive)	> 100 µM (inactive)	3.99 µM (inactive)	94.6 µM (inactive)	25.9 µM (inactive)	53.1 µM (inactive)	32.7 µM (inactive)	–	92 µM (inactive)	43.3 µM (inactive)	47.9 µM (inactive)	56.8 µM (inactive)	–
N=C(N)N/N=C/c1c(-c2ccc(Cl)cc2)nc2sccn12	1.61 µM (inactive)	3.11 µM (inactive)	1.64 µM (inactive)	1.46 µM (inactive)	1.6 µM (inactive)	1.79 µM (inactive)	4.97 µM (inactive)	2.18 µM (inactive)	1.74 µM (inactive)	2 µM (inactive)	4.43 µM (inactive)	1.95 µM (inactive)	1.62 µM (inactive)	1.83 µM (inactive)	1.95 µM (inactive)	4.09 µM (inactive)	1.86 µM (inactive)	–	1.65 µM (inactive)	2.71 µM (inactive)
